Results as given in patent US10422788B2, “Profiling peptides and methods for sensitivity profiling” (Tolero Pharmaceuticals, Inc., priority 2016, dated 2019).

Tests used:
MOLM-13 cells [1] = assay: Addition of ryanodine to the Example 5 assay; assay type: cell-based; conditions: 20 nM Ryanodine; Tat-mediated calcium release from the ER; FIG. 4
MOLM-13 cells [2] = assay: Whole cell assay, JC-1 mitochondrial potential, cells lacking digitonin (FIG. 1B); assay type: cell-based; conditions: 100 μM peptide, no digitonin
Procedure: Briefly, frozen MOLM-13 and OCI-AML3 cell stocks were rapidly thawed, and cell viability was determined by Trypan Blue exclusion. Cells were washed in PBS and resuspended in DTEB (or MEB) buffer (135 mM Trehalose [or 150 mM Mannitol], 10 mM HEPES, 50 mM KCl, 20 μMI EGTA, 20 μM EDTA, 0.1% BSA, and 5 mM succinate). The profiling peptides and NOXA ([…]; SEQ ID NO:16) were reconstituted in water to make working solutions allowing for final concentrations of: SEQ ID NO:1 (100 μM), SEQ ID NO:14 (100 μM), SEQ ID NO:15 (100 μM), and NOXA (100 μM). […] Profiling peptides, controls, or NOXA (for comparison purposes) were first added to a microplate. Cells (4×10^5) resuspended in DTEB or MEB buffers were then added to a staining solution ([…], 40 μM JC-1, 1 M 2-mercaptoethanol, DTEB or MEB buffer), before being added to the wells of the microplate in the above (for non-digitonin-treated samples, digitonin was not added to the staining solution above). The mixture was then incubated for up to 2 hours at 30° C., in order for cell permeabilization (if needed), delivery of peptides or compounds, and mitochondrial depolarization to occur. Fluorescence signal of each well was assessed using an Envision multilabel plate reader at Ex475/Em530 and Ex530/Em595. […]

OCI-AML3 cells = assay: Titration of concentrations of profiling peptides, Mcl-1 dependency percentage (JC-1); assay type: cell-based; conditions: profiling peptide at 10 μM; FIG. 2
Procedure: Briefly, frozen OCI-AML3 cell stocks were rapidly thawed, and cell viability was determined by Trypan Blue exclusion. Cells were washed in PBS and resuspended in DTEB (or MEB) buffer (135 mM Trehalose [or 150 mM Mannitol], 10 mM HEPES, 50 mM KCl, 20 μM EGTA, 20 μM EDTA, 0.1% BSA, 5 mM succinate). The profiling peptides and NOXA (SEQ ID NO:16) were reconstituted in water to make working solutions allowing for final concentrations of: SEQ ID NO:1 (100 μM), SEQ ID NO:1 (30 μM), SEQ ID NO:1 (10 μM), and NOXA (100 μM). […] Profiling peptides, controls, or NOXA (for comparison purposes) were first added to a microplate. […] Fluorescence signal of each well was assessed using an Envision multilabel plate reader at Ex475/Em530 and Ex530/Em595.
Statistical Analysis: For each peptide, the Mcl-1 dependency percentage was calculated using the following formula that determines the dependency:
[formula] Where PC is the fluorescence intensity of the positive control, NC is the fluorescence intensity of the negative control, and Pep is the fluorescence intensity of the peptide at the noted concentration.

subject samples = assay: Reference Lab NOXA priming assay on subject samples; assay type: cell-based, human
MOLM-13 = conditions: published NOXA test results; cited from earlier work
OCI-AML3 = conditions: published NOXA test results; cited from earlier work
THP-1 = conditions: published NOXA test results; cited from earlier work
HL-60 = conditions: published NOXA test results; cited from earlier work
U-937 = conditions: published NOXA test results; cited from earlier work
KG-1 = conditions: published NOXA test results; cited from earlier work
MV4-11 = conditions: published NOXA test results; cited from earlier work
[3] = Sample # 17, subject treated with FLAM, complete response
[4] = Sample # 18, subject treated with FLAM, complete response
[5] = Sample # 19, subject treated with FLAM, complete response

Substance: ryanodine
- nonspecific dye uptake (MOLM-13 cells [1]): prevented nonspecific dye uptake

Substance: RPEIWMTQGLRRLGDEINAYYARGGGYGRKKRRQRRR (profiling peptide sequence) [SEQ ID NO:15]
- activity compared to the positive control (FCCP) (MOLM-13 cells [2]): exceeded the activity of the positive control

Substance: RPEIWMTQGLRRLGDEINAYYAR (Exemplary Mcl-1 Binding Domain sequence) [SEQ ID NO:1]
- Mcl-1 dependency percentage compared to NOXA at 100 μM (OCI-AML3 cells): comparable value

Substance: AELPPEFAAQLRKIGDKVYC (NOXA sequence) [standard NOXA BH3 peptide, used for comparison]
- Reference Lab NOXA Priming % (subject samples; Sample # 1): 14.0%
- Reference Lab NOXA Result (Pos/Neg) (subject samples; Sample # 1): Neg (Concordance based on cutoff of ≥40% MCL-1 Dependency for both methods.)
- Reference Lab NOXA Priming % (subject samples; Sample # 2): 60.0%
- Reference Lab NOXA Result (Pos/Neg) (subject samples; Sample # 2): Pos (Concordance based on cutoff of ≥40% MCL-1 Dependency for both methods.)
- Reference Lab NOXA Priming % (subject samples; Sample # 3): 16.0%
- Reference Lab NOXA Result (Pos/Neg) (subject samples; Sample # 3): Neg (Concordance based on cutoff of ≥40% MCL-1 Dependency for both methods.)
- Reference Lab NOXA Priming % (subject samples; Sample # 4): 0.0%
- Reference Lab NOXA Result (Pos/Neg) (subject samples; Sample # 4): Neg (Concordance based on cutoff of ≥40% MCL-1 Dependency for both methods.)
- Reference Lab NOXA Priming % (subject samples; Sample # 5): 94.4%
- Reference Lab NOXA Result (Pos/Neg) (subject samples; Sample # 5): Pos (Concordance based on cutoff of ≥40% MCL-1 Dependency for both methods.)
- Reference Lab NOXA Priming % (subject samples; Sample # 6): 48.6%
- Reference Lab NOXA Result (Pos/Neg) (subject samples; Sample # 6): Pos (Concordance based on cutoff of ≥40% MCL-1 Dependency for both methods.)
- Reference Lab NOXA Priming % (subject samples; Sample # 7): 0.0%
- Reference Lab NOXA Result (Pos/Neg) (subject samples; Sample # 7): Neg (Concordance based on cutoff of ≥40% MCL-1 Dependency for both methods.)
- Reference Lab NOXA Priming % (subject samples; Sample # 8): 23.5%
- Reference Lab NOXA Result (Pos/Neg) (subject samples; Sample # 8): Neg (Concordance based on cutoff of ≥40% MCL-1 Dependency for both methods.)
- Reference Lab NOXA Priming % (subject samples; Sample # 9): 79.1%
- Reference Lab NOXA Result (Pos/Neg) (subject samples; Sample # 9): Pos (Concordance based on cutoff of ≥40% MCL-1 Dependency for both methods.)
- Reference Lab NOXA Priming % (subject samples; Sample # 10): 38.0%
- Reference Lab NOXA Result (Pos/Neg) (subject samples; Sample # 10): Neg (Concordance based on cutoff of ≥40% MCL-1 Dependency for both methods.)
- Reference Lab NOXA Priming % (subject samples; Sample # 11): 43.3%
- Reference Lab NOXA Result (Pos/Neg) (subject samples; Sample # 11): Pos (Concordance based on cutoff of ≥40% MCL-1 Dependency for both methods.)
- Reference Lab NOXA Priming % (subject samples; Sample # 12): 0.0%
- Reference Lab NOXA Result (Pos/Neg) (subject samples; Sample # 12): Neg (Concordance based on cutoff of ≥40% MCL-1 Dependency for both methods.)
- Reference Lab NOXA Priming % (subject samples; Sample # 13): 0.0%
- Reference Lab NOXA Result (Pos/Neg) (subject samples; Sample # 13): Neg (Concordance based on cutoff of ≥40% MCL-1 Dependency for both methods.)
- Reference Lab NOXA Priming % (subject samples; Sample # 14): 0.0%
- Reference Lab NOXA Result (Pos/Neg) (subject samples; Sample # 14): Neg (Concordance based on cutoff of ≥40% MCL-1 Dependency for both methods.)
- Reference Lab NOXA Priming % (subject samples; Sample # 15): 7.0%
- Reference Lab NOXA Result (Pos/Neg) (subject samples; Sample # 15): Neg (Concordance based on cutoff of ≥40% MCL-1 Dependency for both methods.)
- Reference Lab NOXA Priming % (subject samples; Sample # 16): 7.0%
- Reference Lab NOXA Result (Pos/Neg) (subject samples; Sample # 16): Neg (Concordance based on cutoff of ≥40% MCL-1 Dependency for both methods.)
- Reference Lab NOXA Priming % (subject samples; [3]): 10.89%
- Reference Lab NOXA Result (Pos/Neg) (subject samples; [3]): Neg (Concordance based on cutoff of ≥40% MCL-1 Dependency for both methods.)
- Reference Lab NOXA Priming % (subject samples; [4]): 14.43%
- Reference Lab NOXA Result (Pos/Neg) (subject samples; [4]): Neg (Concordance based on cutoff of ≥40% MCL-1 Dependency for both methods.)
- Reference Lab NOXA Priming % (subject samples; [5]): 0.0%
- Reference Lab NOXA Result (Pos/Neg) (subject samples; [5]): Neg (Concordance based on cutoff of ≥40% MCL-1 Dependency for both methods.)
- NOXA Priming % (MOLM-13): 19.24%
- NOXA Priming % (OCI-AML3): 21.96%
- NOXA Priming % (THP-1): 11.28%
- NOXA Priming % (HL-60): 7.60%
- NOXA Priming % (U-937): 24.35%
- NOXA Priming % (KG-1): 12.39%
- NOXA Priming % (MV4-11): 12.84%
